Read-outs that look alike come from different tables or passages of the source.
What was measured:
[1] = system: MDA-MB231; assay: SRB antiproliferative/antigrowth assay; assay type: cell-based, human; settings: for GI50: SRB, 48 h post-treatment, mean of triplicates of at least two experiments, read-out: GI50 MB231
Method: (§1) The antigrowth effects of 4-piperazinylquinoline sulfonyl analogs on human breast tumor cells was initially evaluated using MDA-MB468 (a PTEN defective, EGFR positive breast adenocarcioma), MDA-MB231 (p53 and pRB mutated, triple-negative breast carcinoma), and MCF7 (p53+/−, invasive ductal breast carcinoma) cell lines. In addition, the cytotoxicity of all the compounds was also evaluated with the 184B5 and MCF10A non-cancer immortalized breast epithelial cell lines, to determine if these newly synthesized compounds have differential cytotoxic effects on cancer and non-cancer cells. The panel of three breast cancer cell lines with different genetic back ground and the well-studied two non-cancer immortalized breast cell lines would provide insights into the efficacy and toxicity of the test compounds in the different genetic background and at different stages of tumor development. The dose response of each cell line was established by determining the number of viable cells after 48 h of continuous drug treatment against seven different concentrations (100 µM to 0.0064 µM) of each compound. The reading of sulphorodamine B (SRB) staining is known to accurately reflect the level of total cellular macromolecules/cell growth/proliferation[6],[23]. […] The data for CQ and cisplatin were included as references. […] The differences in the GI50 values may be attributable to such factors as the nature of the sulfonyl group and the halogen substitution on the 7th position of the 4-piperazinylquinoline ring system, and the genetic and biochemical background of the cell lines.
(§2) Antiproliferative/antigrowth effects were determined by a SRB-based protocol[6],[23]. For a typical screening experiment, 5,000–10,000 cells were inoculated into 100 µL medium per well of a 96-well microtiter plate as described previously. Briefly, after the inoculation, the microtiter plate was incubated at 37 °C, 5% CO2, 95% air and 100% relative humidity for 24 h, prior to addition of experimental drugs. Some of the sample wells were fixed with 25 µL of 50% tricholoroacetic acid (TCA) as a control of the cell population for each cell line at the time of drug addition (Tz). An aliquot of the frozen stock was thawed and diluted to a desired final maximum test-concentration with complete medium. Two to ten-fold serial dilutions were made to provide a total of seven drug concentrations (and a control [C]). Following addition of drugs, the culture plate was incubated for additional 48 h. Cells were fixed in situ by slowly adding 25 µL of ice-cold 50% (w/v) TCA (final concentration, 10% TCA), and were then incubated for 60 min at 4 °C. The supernatant was discarded, and the plate was washed five times with tap water, followed by air-dry. 50 µL of SRB solution at 0.4% (w/v) in 1% acetic acid was added to each well, and the plate was incubated for >30 min at room temperature. Unbound SRB was removed by five washes with tap water, followed by air-drying. The cells “stained” with SRB were solubilized with 10 mM trizma base, and the absorbance was read on an automated plate reader at a wavelength of 515–564 nm. The relative growth rate (%) was calculated for each of the compound concentrations according to the following formula: (Ti−Tz)/(C−Tz)×100
(§3) In the formula, time zero (Tz), control growth (C), and OD for different concentration of tested compounds (Ti). The GI50 for each compound was obtained from a non-linear Sigmoidal dose-response (variable slope) curve which is fitted by GraphPad Prism v.4.03 software. Values were calculated for each of these parameters if the level of activity was reached. However, if the effect was not reached or was exceeded, the value for that parameter was expressed as greater or less than the maximum or minimum concentration tested.

[2] = system: MDA-MB468; assay: SRB antiproliferative/antigrowth assay; assay type: cell-based, human; settings: SRB, 48 h post-treatment, mean of triplicates of at least two experiments, read-out: GI50 MB468
Method: as §1, §2, §3

[3] = system: MCF7; assay: SRB antiproliferative/antigrowth assay; assay type: cell-based, human; settings: for GI50: SRB, 48 h post-treatment, mean of triplicates of at least two experiments, read-out: GI50 MCF7
Method: as §1, §2, §3

[4] = system: MCF10A; assay: SRB antiproliferative/antigrowth assay, non-cancer cells; assay type: cell-based, human; settings: SRB, 48 h post-treatment, non-cancer breast epithelial cells, read-out: GI50 MCF10A
Method: as §1, §2, §3

[5] = system: 184B5; assay: as above; assay type: cell-based, human; settings: read-out: GI50 184B5
Method: as §1, §2, §3

[6] = Homo sapiens, 184B5, 48 h, SRB, 48 h post-treatment, non-cancer breast epithelial cells
[7] = SRB, 48 h post-treatment, non-cancer breast epithelial cells

Compound	GI50 ([1]; Homo sapiens, MDA-MB-231, 48 h) [µM]	GI50 ([2]; Homo sapiens, MDA-MB-468, 48 h) [µM]	GI50 ([3]; Homo sapiens, MCF7, 48 h) [µM]	GI50 ([4]; Homo sapiens, MCF-10A, 48 h) [µM]	GI50 [5, 6] [µM]	melting point [°C]	further results
O=[N+]([O-])c1cccc(S(=O)(=O)N2CCN(c3ccnc4cc(Cl)ccc34)CC2)c1 [Compound 12, 7-Chloro-4-(4-(3-nitrophenylsulfonyl)piperazin-1-yl)quinoline]	34.7 ± 0.7	25.1 ± 0.7	14.8 ± 0.2	15.5 ± 0.2	13.3 ± 0.2	138 to 140	–
O=S(=O)(NCCCNc1ccnc2cc(Cl)ccc12)c1ccc(Cl)cc1 [Compound 28, 4-Chloro-N-(3-(7-chloroquinolin-4-ylamino)propyl)benzenesulfonamide]	11.8 ± 0.9	8.3 ± 0.7	4.3 ± 0.3	9.7 ± 0.1	6.4 ± 0.3	–	increase in potency on MDA-MB231 in comparison to methyl substituted compounds (25 and 34) [1]: 3.5–4.4 fold
O=[N+]([O-])c1cccc(S(=O)(=O)NCCCNc2ccnc3cc(Cl)ccc23)c1 [Compound 30, N-(3-(7-chloroquinolin-4-ylamino)propyl)-3-nitrobenzenesulfonamide]	20.4 ± 1.2	9.2 ± 0.7	8.6 ± 0.4	31.1 ± 1.1	15.8 ± 0.9	–	–
O=S(=O)(NCCCNc1ccnc2cc(C(F)(F)F)ccc12)c1ccc(-c2ccccc2)cc1 [Compound 36, Biphenyl-4-sulfonic acid [3-(7-trifluoromethyl-quinolin-4-ylamino)-propyl]-amide]	6 ± 0.4	4.2 ± 0.2	3.6 ± 0.3	2.2 ± 0.3	2.8 ± 0.1	110 to 112	–
O=S(=O)(NCCCNc1ccnc2cc(C(F)(F)F)ccc12)c1ccc(Cl)cc1Cl [Compound 38, 2,4-Dichloro-N-[3-(7-trifluoromethyl-quinolin-4-ylamino)-propyl]-benzenesulfonamide]	7 ± 0.6	3.9 ± 0.1	5.2 ± 0.3	5.3 ± 0.3	3.2 ± 0.1	117 to 119	–
CS(=O)(=O)NCCCNc1ccnc2cc(C(F)(F)F)ccc12 [Compound 34, N-[3-(7-Trifluoromethyl-quinolin-4-ylamino)-propyl]-methanesulfonamide]	55.9 ± 1.6	30.4 ± 1	25.3 ± 1.3	85 ± 1.2	59.5 ± 1.6	171 to 173	–
O=S(=O)(NCCCNc1ccnc2cc(C(F)(F)F)ccc12)c1ccc(Cl)cc1 [Compound 37, 4-Chloro-N-[3-(7-trifluoromethyl-quinolin-4-ylamino)-propyl]-benzenesulfonamide]	12.8 ± 0.9	10.3 ± 0.6	5.4 ± 0.3	17.4 ± 0.1	7.6 ± 0.4	70 to 72	increase in potency on MDA-MB231 in comparison to methyl substituted compounds (25 and 34) [1]: 3.5–4.4 fold
CS(=O)(=O)N1CCN(c2ccnc3cc(Cl)ccc23)CC1 [Compound 7, 7-Chloro-4-(4-(methylsulfonyl)piperazin-1-yl)quinoline]	42.7 ± 0.8	35.1 ± 0.8	22.9 ± 0.6	15.3 ± 0.1	11.5 ± 0.2	–	–
O=[N+]([O-])c1ccc(S(=O)(=O)NCCCNc2ccnc3cc(Cl)ccc23)c([N+](=O)[O-])c1 [Compound 31, N-[3-(7-Chloro-quinolin-4-ylamino)-propyl]-2,4-dinitro-benzenesulfonamide]	–	–	–	–	–	238 to 240	increase in antigrowth activity against MDA-MB231 compared to mono nitro substituted compounds (30 and 39) [1]: 1.7–2.3 fold; GI50 ([1]; Homo sapiens, MDA-MB-231): 8.9 ± 0.7 µM; GI50 ([2]; Homo sapiens, MDA-MB-468): 7.4 ± 0.2 µM; GI50 ([3]; Homo sapiens, MCF7): 6.2 ± 0.3 µM; GI50 ([4]; Homo sapiens, MCF-10A): 19.8 ± 0.9 µM; GI50 ([5]; Homo sapiens, 184B5, 48 h): 9.1 ± 0.6 µM
CN(C)c1cccc2c(S(=O)(=O)NCCCNc3ccnc4cc(C(F)(F)F)ccc34)cccc12 [Compound 41, 5-Dimethylamino-naphthalene-1-sulfonic acid [3-(7-trifluoromethyl-quinolin-4-ylamino)-propyl]-amide]	14.2 ± 1	9.7 ± 0.3	7.7 ± 0.6	6.5 ± 0.3	3.7 ± 0.2	199 to 201	–
O=S(=O)(c1ccc(Cl)cc1Cl)N1CCN(c2ccnc3cc(Cl)ccc23)CC1 [Compound 11, 7-Chloro-4-(4-(2,4-dichlorophenylsulfonyl)piperazin-1-yl)quinoline]	40.6 ± 0.8	21.6 ± 0.6	13.5 ± 0.2	8.9 ± 0.2	12.4 ± 0.1	145 to 147	–
O=S(=O)(c1ccc(Cl)cc1Cl)N1CCN(c2ccnc3cc(C(F)(F)F)ccc23)CC1 [Compound 20, 4-[4-(2,4-Dichloro-benzenesulfonyl)-piperazin-1-yl]-7-trifluoromethyl-quinoline]	20.3 ± 0.5	18.6 ± 0.5	16.7 ± 0.2	15.6 ± 0.2	20.4 ± 0.2	137 to 139	increase in antigrowth activity on MDA-MB231 in comparison to methyl substituted compound 16 [1]: 2 fold
O=S(=O)(c1ccc(Cl)cc1)N1CCN(c2ccnc3cc(Cl)ccc23)CC1 [Compound 10, 7-Chloro-4-(4-(4-chlorophenylsulfonyl)piperazin-1-yl)quinoline]	25.5 ± 0.7	16 ± 0.6	7.6 ± 0.1	8.7 ± 0.1	12.1 ± 0.2	–	increase in antigrowth activity on MCF7 in comparison to methyl substituted compound 7 [3]: 3 fold
CS(=O)(=O)NCCCNc1ccnc2cc(Cl)ccc12 [Compound 25, N-[3-(7-Chloro-quinolin-4-ylamino)-propyl]-methanesulfonamide]	40.9 ± 1.5	28.6 ± 1	23.1 ± 0.9	39.1 ± 1.2	23.3 ± 0.9	–	–
7-Chloro-4-(4-(biphenylsulfonyl)piperazin-1-yl)quinoline [Compound 9]	–	–	–	–	–	–	GI50 [1]: 26.2 ± 0.6 µM; GI50 [2]: 18.2 ± 0.5 µM; GI50 [3]: 9.2 ± 0.2 µM; GI50 [4]: 12.4 ± 0.2 µM; GI50 [5, 7]: 16.4 ± 0.2 µM
COC(=O)c1sccc1S(=O)(=O)NCCCNc1ccnc2cc(Cl)ccc12 [Compound 33, 3-[3-(7-Chloro-quinolin-4-ylamino)-propylsulfamoyl]-thiophene-2-carboxylic acid methyl ester]	5.97	4.18	4.22	16.5	15.7	–	GI50 [1]: 6.1 ± 0.5 µM; more effective than cisplatin (MDA-MB231) ([1]; ratio of GI50 values): 4.0 fold; GI50 [2]: 4.1 ± 0.3 µM; GI50 [3]: 4.2 ± 0.2 µM; more effective than cisplatin (MCF7) ([3]; ratio of GI50 values): 6.1 fold; GI50 [4]: 16.5 ± 0.8 µM; GI50 [5, 7]: 15.7 ± 0.4 µM
